Test results taken from patent publication US9718823B2, “2, 6-Di-nitrogen-containing substituted purine derivative, and preparation method, pharmaceutical composition and use thereof” (Zhejiang Medicine Co., Ltd. Xinchang Pharmaceutical Factory, priority 2013, dated 2017).
pIC50: −log10 of the molar value. Where “and” joins values, the source holds several entries; their conditions need not be identical. Equal values may be shown once. Read-outs that look alike come from different tables or passages of the source.

Legend:
[1] = tested on: PC-3 human prostate cancer cell strain; test: Antitumor cell proliferation in vitro, CCK-8 detection kit, PC-3; assay type: cell-based; conditions: Homo sapiens, PC-3, 72 h, PC-3 cells, 1st and 2nd test where printed
Method: (§1) The half inhibitory concentration IC50 of proliferation of three kinds of tumor cell strain (U87MG, PC-3, BT474) for 12 candidate compounds of the present invention is detected by CCK-8 detection kits.
PC-3 human prostate cancer cell strain (cell bank of Chinese Academy of Sciences)
(§2) The studied compounds are dissolved by DMSO to make the final concentration 10 mM.
(§3) • a) Collecting the cells in logarithmic phase, counting, and resuspending the cells with complete medium. • b) Adjusting the concentration of cells to a suitable concentration, inoculating in 96 well plates, each well is inoculated to 100 μl cell suspension.
(§4) c) incubating cells for 24 hours in a 5% CO2 incubator at temperature of 37° C., under the condition of 100% relative humidity.
(§5) a) The cells in logarithmic phase is collected, counted, resuspended with complete medium. The concentration of cells is adjusted to a suitable concentration (determined in accordance with the optimizable test results of cell density), and the cells is inoculated in 96 well plates, wherein each well is inoculated 100 μl cell suspension, Cells are incubated for 24 hours in 5% CO2 incubator at temperature of 37° C. under the condition of 100% relative humidity.
(§6) b) The test compounds are diluted to 500 μM with culture medium, then diluted in series eight times. […] as 25 μl/well. The final concentrations of the compounds are diluted from 100 μM to 0 μM, with 4 times dilution, and there are a total of 10 concentration points.
(§7) c) Cells are incubated for 72 hours in 5% CO2 incubator at temperature of 37° C. under the condition of 100% relative humidity.
(§8) d) The culture medium is aspirated and discarded, and complete medium containing 10% CCK-8 is incubated in a incubator at 37° C. for 2˜4 hours.
(§9) e) After shocking gently, the absorbance of the culture medium is measured at 450 nm wavelength on SpectraMax M5 Microplate Reader, with the absorbance at 650 nm as reference, to calculate the inhibition rate.

[2] = tested on: U87MG human glioblastoma Multiforme cell strain; test: Antitumor cell proliferation in vitro, CCK-8 detection kit, U87MG; assay type: cell-based; conditions: U-87 MG, 72 h, U-87MG cells, 1st and 2nd test where printed
Method: as §1
U87MG human glioblastoma Multiforme cell strain (cell bank of Chinese Academy of Sciences)
as §2, §3, §4, §5, §6, §7, §8, §9

[3] = tested on: BT474 human breast cancer cell strain; test: Antitumor cell proliferation in vitro, CCK-8 detection kit, BT474; assay type: cell-based; conditions: BT-474 cells, 1st and 2nd test where printed
Method: as §1
BT474 human breast cancer cell strain (cell bank of Chinese Academy of Sciences) Reagents and materials:
as §2, §3, §4, §5, §6, §7, §8, §9

[4] = target: T1, PI3K α (Homo sapiens, UniProt P42336); test: Inhibitory activity to PI3K α, PI 3-Kinase (human) HTRF Assay kit; assay type: biochemical; conditions: read-out: % Inhibition Rate to PI3K α
T1 construct: purchased Millipore 14-602
T1 sequence (P42336 whole entry): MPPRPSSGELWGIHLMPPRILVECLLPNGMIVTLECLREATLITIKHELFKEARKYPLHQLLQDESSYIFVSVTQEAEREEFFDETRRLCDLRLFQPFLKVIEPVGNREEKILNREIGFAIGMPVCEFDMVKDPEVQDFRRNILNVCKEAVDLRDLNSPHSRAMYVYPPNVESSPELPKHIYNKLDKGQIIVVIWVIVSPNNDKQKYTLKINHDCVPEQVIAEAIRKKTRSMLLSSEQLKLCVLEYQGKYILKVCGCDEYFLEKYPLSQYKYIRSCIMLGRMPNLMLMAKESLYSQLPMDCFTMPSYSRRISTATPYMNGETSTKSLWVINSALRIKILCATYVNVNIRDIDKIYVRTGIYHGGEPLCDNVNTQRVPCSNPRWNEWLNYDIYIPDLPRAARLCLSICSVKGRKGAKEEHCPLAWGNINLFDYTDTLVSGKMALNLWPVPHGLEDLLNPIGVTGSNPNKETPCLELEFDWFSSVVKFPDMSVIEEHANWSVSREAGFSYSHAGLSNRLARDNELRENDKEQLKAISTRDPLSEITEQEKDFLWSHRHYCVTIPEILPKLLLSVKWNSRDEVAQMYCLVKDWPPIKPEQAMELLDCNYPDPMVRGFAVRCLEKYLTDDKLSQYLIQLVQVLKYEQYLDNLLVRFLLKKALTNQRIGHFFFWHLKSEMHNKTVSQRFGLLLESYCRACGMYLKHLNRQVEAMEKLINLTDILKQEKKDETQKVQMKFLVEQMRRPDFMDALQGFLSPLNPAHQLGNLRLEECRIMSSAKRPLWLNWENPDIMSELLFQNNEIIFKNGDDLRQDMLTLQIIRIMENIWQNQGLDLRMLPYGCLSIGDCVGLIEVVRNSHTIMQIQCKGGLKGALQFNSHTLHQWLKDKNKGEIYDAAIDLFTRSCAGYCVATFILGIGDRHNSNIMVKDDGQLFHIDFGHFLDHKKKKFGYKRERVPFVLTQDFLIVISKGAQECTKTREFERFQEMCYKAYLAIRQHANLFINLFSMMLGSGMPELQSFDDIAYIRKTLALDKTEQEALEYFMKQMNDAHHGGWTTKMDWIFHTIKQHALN
T1 sequence (P27986 whole entry partner): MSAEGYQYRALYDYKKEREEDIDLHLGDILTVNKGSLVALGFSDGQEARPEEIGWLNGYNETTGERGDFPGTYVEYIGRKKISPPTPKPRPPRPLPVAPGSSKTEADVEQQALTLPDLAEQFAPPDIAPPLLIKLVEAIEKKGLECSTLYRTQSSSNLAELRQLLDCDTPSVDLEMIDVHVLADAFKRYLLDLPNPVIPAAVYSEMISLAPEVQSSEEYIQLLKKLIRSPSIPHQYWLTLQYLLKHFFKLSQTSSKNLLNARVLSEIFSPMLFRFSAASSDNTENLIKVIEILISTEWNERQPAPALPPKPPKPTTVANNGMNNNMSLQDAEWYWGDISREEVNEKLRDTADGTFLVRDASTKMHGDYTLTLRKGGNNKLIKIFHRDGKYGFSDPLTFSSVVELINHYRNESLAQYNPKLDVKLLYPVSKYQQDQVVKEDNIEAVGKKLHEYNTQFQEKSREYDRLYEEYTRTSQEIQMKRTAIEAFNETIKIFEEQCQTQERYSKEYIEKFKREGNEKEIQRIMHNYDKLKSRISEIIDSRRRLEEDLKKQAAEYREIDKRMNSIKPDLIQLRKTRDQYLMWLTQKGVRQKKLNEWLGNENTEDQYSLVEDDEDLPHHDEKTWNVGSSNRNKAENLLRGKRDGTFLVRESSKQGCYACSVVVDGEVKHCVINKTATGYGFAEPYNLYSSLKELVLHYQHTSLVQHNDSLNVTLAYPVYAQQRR
From the text: Study on the inhibitory activity of the compounds of present invention to PI 3κα, PI3κδ and PI3κγ. Two or three concentrations of the compounds are selected to preliminary screening to calculate respectively the activity inhibition rate of the compounds of corresponding concentrations to enzyme, then the compounds with better activity are selected by preliminary screening for IC50 test.
PI 3-Kinase (human) HTRF™ Assay kit (Cat.33-017, Millipore)
PI 3k α (Cat.14-602, Millipore)
4× Reaction Buffer (Cat.33-002, Millipore) is diluted with ddH2O to 1.33×, and 1M DTT is added to make the final concentration as 6.67 mM. For example, 10 μL DTT is added into 500 μL 4× Reaction Buffer, and water is added to 1.5 mL.
The Test compounds are dissolved with DMSO to 1 mM as storage liquid. 2 μL of each of storage liquid is added into 48 μL ddH2O, to obtain the 40 μM compounds solution containing 4% DMSO. After mixing, 3 μL of each of the solution is added into 27 μL 4% DMSO (in ddH2O) to obtain the 4 μM compounds solution. 5 μL of each dilute solution is added into 384-well plates, then the final concentration of the compounds in the 20 μL final kinase reaction system is 10 μM and 1 μM respectively contained 1% DMSO. The dilution methods of compounds are similar to the preliminary screening in IC50 test.
2×PIP2 working fluid is prepared with 1.33× reaction buffer to the final concentration of 20 μM.
The screening concentration of PI 3k α kinase: 8 ng/well,
Kinase is diluted with 2×PIP2 operating fluid, the concentration of kinase operating fluid is 2 times of screening concentration.
10 mM ATP is diluted with 1.33× reaction buffer to 400 μM. The concentration of ATP is 100 μM in 20 μL kinase reaction system.
Stop A and Stop B are mixed according to the proportion of 3:1, and are placed for 2 hours at room temperature to obtain the stop solution available.
DM C, DM A and DM B are mixed according to the proportion of 18:1:1, and are placed for 2 hours at room temperature to obtain the detection solution available.

[5] = target: T2, PI3Kδ (Homo sapiens, UniProt O00329); test: Inhibitory activity to PI3K δ, PI 3-Kinase (human) HTRF Assay kit; assay type: biochemical; conditions: for inhibition at 1 µM / inhibition at 10 µM: read-out: Inhibition rate % to PI3Kδ
T2 construct: purchased Millipore 14-604
T2 sequence (O00329 whole entry): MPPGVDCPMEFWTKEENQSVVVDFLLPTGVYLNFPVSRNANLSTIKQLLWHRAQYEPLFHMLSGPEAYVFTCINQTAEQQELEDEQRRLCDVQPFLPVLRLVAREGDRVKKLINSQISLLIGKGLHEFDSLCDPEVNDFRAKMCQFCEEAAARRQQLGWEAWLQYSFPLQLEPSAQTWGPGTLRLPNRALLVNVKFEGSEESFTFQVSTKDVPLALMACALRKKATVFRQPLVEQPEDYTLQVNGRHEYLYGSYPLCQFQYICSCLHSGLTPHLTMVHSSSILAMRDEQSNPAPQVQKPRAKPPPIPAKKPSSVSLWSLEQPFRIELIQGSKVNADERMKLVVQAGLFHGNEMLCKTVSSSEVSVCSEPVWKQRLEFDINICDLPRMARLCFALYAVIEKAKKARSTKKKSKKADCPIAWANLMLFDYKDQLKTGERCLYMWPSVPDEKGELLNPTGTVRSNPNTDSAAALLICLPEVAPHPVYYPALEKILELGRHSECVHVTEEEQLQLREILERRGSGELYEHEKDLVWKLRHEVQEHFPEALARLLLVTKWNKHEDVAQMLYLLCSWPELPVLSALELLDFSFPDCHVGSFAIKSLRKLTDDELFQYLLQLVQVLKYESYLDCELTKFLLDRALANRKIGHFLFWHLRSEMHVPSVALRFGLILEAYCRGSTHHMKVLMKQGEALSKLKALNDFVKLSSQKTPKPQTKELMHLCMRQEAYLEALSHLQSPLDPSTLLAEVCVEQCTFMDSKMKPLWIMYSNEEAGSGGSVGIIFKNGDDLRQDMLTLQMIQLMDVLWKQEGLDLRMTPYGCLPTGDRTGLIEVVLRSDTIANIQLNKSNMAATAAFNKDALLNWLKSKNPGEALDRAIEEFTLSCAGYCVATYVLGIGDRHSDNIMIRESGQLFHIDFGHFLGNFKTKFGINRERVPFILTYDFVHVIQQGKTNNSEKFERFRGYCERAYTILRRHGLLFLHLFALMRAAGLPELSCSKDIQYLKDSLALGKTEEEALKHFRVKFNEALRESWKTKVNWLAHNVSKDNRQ
T2 sequence (P27986 whole entry partner): as the sequence (P27986 whole entry partner) above
Summary of the method: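 Inhibition of human PI3Kδ was assessed with the Millipore PI 3-Kinase (human) HTRF Assay kit. PI3Kδ was screened at 2 ng/well, diluted in 2×PIP2 operating fluid. Reactions were 20 μL and contained 100 μM ATP. Stop solution was Stop A and Stop B mixed 3:1. Detection solution was DM C, DM A and DM B mixed 18:1:1. Compounds were prepared from DMSO stocks, and percent inhibition was reported.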

[6] = tested on: PC-3 cell Akt (Ser473) phosphorylation; test: Inhibition of phosphorylation level of PC-3 cell Akt (Ser473), Cisbio HTRF phospho Akt (Ser473) cell-based assay; set-up: species or system human; conditions: hEGF 100 ng/ml stimulation, 1st and 2nd test where printed
Method: The inhibitory activity of the compounds of present invention to the phosphorylation level of PC-3 cell Akt (Ser473) is studied by using Cisbio HTRF phospho Akt (Ser473) cell-based assay test kit.
Cell strain: PC-3 prostate cancer cells line (cell bank of Chinese Academy of Sciences) is cultured by using culture medium (F12K+10% FBS).
hEGF is prepared as stock solution of 100 ug/ml with 10 mM acetic acid, and the stock solution is diluted to 200 ng/ml with serum-free medium, added 50 ul to each well to be stimulated.
b) Preparation of Complete Lysate • 4×Lysis Buffer is diluted 4 times with ddH2O to prepare 1×Lysis Buffer. • 100×Blocking Reagent is diluted 100 times with 1×Lysis Buffer.
c) Preparation of Detection Liquid • 20×Anti-Phospho-Akt is diluted 20 times with Detection Buffer. • 20×Anti-Akt is diluted 20 times with Detection Buffer.
The compounds are diluted with DMSO, and the working concentration of compounds is 100 times of detection concentration.
Cells in logarithmic growth phase are collected, counted, and resuspended with complete culture medium;
The cell concentration is adjusted to appropriate concentration, and cell suspension is inoculated into 96 well plates at 50 μl per well;
Cells are incubated for more than 4 h in the 5% CO2 incubator at temperature of 37° C., relative humidity of 100%;
Cell plate is removed from the incubator. The cell suspension is aspirated gently, and 50 ul serum-free F12K medium is quickly added, then the cell plate is placed into the incubator to culture overnight.
The compounds are diluted in a linear gradient with DMSO.
0.5 ul compounds is added into the test well, mixed on oscillators, and incubated at room temperature for 2 hours.
Proportioned hEGF solution is added to test well at 50 μl per well, and the final concentration is 100 ng/ml. serum-free medium is added into The negative control well at 50 μl per well.
The solution is mixed on oscillator and incubated at room temperature for 2 hours.
The liquid in 96 well plates is aspirated by multichannel pipette or the supernatant is discarded gently. The proportioned complete lysate is added quickly at 50 μl per well.
The solution is mixed on oscillator and lysed at room temperature for 30 min.
16 μl cell lysate is transferred from the 96 well plates to white low volume 384 well plates, and the proportioned two pairs of detection antibody are added. The solution is mixed on oscillator, and incubated at room temperature for 4 hours to detect the readings.

[7] = target: T3, PDGFR β enzyme (Homo sapiens, UniProt P09619); test: Inhibitory activity to PDGFR β enzyme, HTRF kinEASE TK kit; assay type: biochemical; conditions: read-out: Inhibition rate % (PDGFR β)
T3 construct: purchased Invitrogen P3082
T3 sequence (P09619 33-1106): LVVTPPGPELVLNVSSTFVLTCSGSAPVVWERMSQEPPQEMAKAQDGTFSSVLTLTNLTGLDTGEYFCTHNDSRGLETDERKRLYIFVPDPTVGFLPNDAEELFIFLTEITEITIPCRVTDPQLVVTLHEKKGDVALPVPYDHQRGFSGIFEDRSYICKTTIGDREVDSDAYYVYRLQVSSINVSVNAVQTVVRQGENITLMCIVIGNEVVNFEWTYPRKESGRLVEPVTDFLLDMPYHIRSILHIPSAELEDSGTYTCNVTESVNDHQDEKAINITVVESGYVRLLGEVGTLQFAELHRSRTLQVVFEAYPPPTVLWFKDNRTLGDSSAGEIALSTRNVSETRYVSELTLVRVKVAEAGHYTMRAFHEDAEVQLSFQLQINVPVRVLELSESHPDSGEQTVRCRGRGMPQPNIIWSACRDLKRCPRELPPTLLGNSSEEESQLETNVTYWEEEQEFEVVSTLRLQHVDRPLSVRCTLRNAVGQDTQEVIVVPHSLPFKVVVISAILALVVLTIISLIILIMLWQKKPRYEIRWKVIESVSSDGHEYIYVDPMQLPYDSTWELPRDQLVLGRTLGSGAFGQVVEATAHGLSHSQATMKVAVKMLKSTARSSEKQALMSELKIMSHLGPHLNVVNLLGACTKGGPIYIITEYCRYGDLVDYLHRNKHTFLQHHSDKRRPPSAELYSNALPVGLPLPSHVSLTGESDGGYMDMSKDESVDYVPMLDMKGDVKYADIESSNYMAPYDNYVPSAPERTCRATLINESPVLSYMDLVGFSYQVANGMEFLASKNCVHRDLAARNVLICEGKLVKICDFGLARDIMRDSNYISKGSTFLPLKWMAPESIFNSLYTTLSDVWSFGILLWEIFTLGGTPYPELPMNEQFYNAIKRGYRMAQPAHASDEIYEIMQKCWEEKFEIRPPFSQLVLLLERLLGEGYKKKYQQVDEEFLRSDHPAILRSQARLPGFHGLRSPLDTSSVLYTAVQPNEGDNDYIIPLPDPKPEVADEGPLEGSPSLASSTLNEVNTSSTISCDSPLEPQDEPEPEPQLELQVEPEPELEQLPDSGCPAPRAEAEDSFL
Summary of the method: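 Recombinant human PDGFRβ phosphorylating TK-substrate in kinase buffer containing MgCl2, MnCl2, DTT and SEB, with ATP. Phosphorylation detected by HTRF using TK-Ab-Cryptate and Sa-XL665.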

[8] = target: T4, PI3 K γ (Homo sapiens, UniProt P48736); test: Inhibitory activity to PI3K γ, PI 3-Kinase (human) HTRF Assay kit; assay type: biochemical; conditions: read-out: Inhibition rate % to PI3 K γ
T4 construct: purchased Biology, Medicilon
T4 sequence (P48736 whole entry): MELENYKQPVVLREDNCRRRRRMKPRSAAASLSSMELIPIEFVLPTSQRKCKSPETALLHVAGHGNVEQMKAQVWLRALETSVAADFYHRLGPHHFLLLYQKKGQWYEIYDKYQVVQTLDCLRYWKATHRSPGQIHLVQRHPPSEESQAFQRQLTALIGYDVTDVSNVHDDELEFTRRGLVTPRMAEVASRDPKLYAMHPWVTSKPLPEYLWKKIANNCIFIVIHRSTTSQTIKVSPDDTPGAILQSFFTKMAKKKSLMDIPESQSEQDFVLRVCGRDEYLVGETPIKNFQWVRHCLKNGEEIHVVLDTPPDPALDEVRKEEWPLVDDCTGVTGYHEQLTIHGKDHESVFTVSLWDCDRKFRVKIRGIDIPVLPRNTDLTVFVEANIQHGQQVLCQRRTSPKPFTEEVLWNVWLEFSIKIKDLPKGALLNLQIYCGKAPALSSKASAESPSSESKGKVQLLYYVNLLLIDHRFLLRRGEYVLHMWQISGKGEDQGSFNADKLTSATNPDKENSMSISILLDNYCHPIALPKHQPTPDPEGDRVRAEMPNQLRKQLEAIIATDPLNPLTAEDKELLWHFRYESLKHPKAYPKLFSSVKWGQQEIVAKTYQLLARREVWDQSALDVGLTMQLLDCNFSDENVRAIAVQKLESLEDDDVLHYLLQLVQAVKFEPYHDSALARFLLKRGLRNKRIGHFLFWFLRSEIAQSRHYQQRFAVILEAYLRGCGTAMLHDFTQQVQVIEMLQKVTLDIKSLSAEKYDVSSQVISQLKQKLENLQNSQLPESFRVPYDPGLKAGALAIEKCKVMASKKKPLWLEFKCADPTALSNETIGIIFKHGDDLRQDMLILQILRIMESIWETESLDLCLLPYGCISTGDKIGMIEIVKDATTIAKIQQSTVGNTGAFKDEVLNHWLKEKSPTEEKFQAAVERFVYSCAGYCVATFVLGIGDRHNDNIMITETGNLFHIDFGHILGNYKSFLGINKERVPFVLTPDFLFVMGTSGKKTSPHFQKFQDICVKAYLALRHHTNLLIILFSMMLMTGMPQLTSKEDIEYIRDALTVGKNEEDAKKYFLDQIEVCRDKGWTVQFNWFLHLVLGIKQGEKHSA
Summary of the method: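 HTRF kinase assay with PI3Kγ at 80 ng/well, 10 μM PIP2 and 100 μM ATP (both final) in DTT-containing reaction buffer, 1% DMSO. Preliminary screen at 10 μM and 1 μM compound, followed by IC50 determination for selected compounds.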

Row | SMILES | pIC50 [1] | pIC50 [2] | pIC50 ([3]; Homo sapiens, BT-474, 72 h) | inhibition at 1 µM [4] [%] | inhibition at 10 µM [4] [%] | Inhibition rate % to PI3Kδ ([5]; 1 μM (Table 7), 1 µM) [%] | Inhibition rate % to PI3Kδ ([5]; 10 μM (Table 7), 10 µM) [%] | IC50 ([6]; Homo sapiens, PC-3, PC-3 cells) [nM] | inhibition at 1 µM ([5]; 1 μM (Table 7)) [%] | inhibition at 10 µM ([5]; 10 μM (Table 7)) [%] | pIC50 ([3]; 72 hours) | inhibition at 1 µM [7] [%] | inhibition at 10 µM [7] [%] | IC50 ([6]; PC-3 cells) | inhibition at 1 µM [8] [%] | inhibition at 10 µM [8] [%] | inhibition at 1 µM ([7]; 1 μM) [%] | inhibition at 10 µM ([7]; 10 μM) [%]
1 | CC(C)Oc1nc(Nc2ccc3ncccc3c2)nc2[nH]cnc12 [MED1007-104, N-(6-isopropoxy-9H-purine-2-yl) quinoline-6-amine] | 5.77 | 4.74 | 5.87 | 60.3 | 106 | 57.14 | 85.86 |  |  |  |  |  |  |  |  |  |  | 
2 | c1ccc(-c2ccnc3ccc(Nc4nc(N5CCCC5)c5nc[nH]c5n4)cc23)cc1 [MED1007-103, 4-phenyl-N-(6-(pyrrolidine-1-yl)-9H-purine-2-yl)quinoline-6-amine] |  |  |  | 55.3 | 82.2 |  |  | 276 | 68 | 87.5 |  |  |  |  |  |  |  | 
3 | CC(C)Oc1nc(Nc2ccc3nccc(-c4ccccc4)c3c2)nc2[nH]cnc12 [MED1007-51, N-(6-isopropoxy-9H-purine-2-yl)-4-(phenyl-1-yl) quinoline-6-amine] |  |  |  |  |  |  |  |  | 39.6 | 75.5 | 7.09 and 6.94 | 11.9 | 33.6 | 1.14 nM and 0.683 nM | 1.16 | 56.2 |  | 
4 | COc1ccc(-c2ccnc3ccc(Nc4nc(NC5CC5)c5nc[nH]c5n4)cc23)cc1 [MED1007-63, N6-cyclopropyl-N2-(4-(4-methoxyphenyl)quinoline-6-yl)-9H-purine-2,6-diamine] |  |  |  |  |  |  |  | 62.2 | 37.5 | 122 |  |  |  |  | 0.96 | 14.7 | -0.31 | 28
5 | c1cnc2ccc(Nc3nc(NC4CC4)c4nc[nH]c4n3)cc2c1 [XC-302, reference compound] | 4.83 | 4.75 | 5.23 |  |  |  |  |  |  |  |  |  |  |  | 18.3 | 49.3 | 51.1 | 96.5
